The target in data set [1] is A2A receptor (Homo sapiens, UniProt P29274). In words: Inhibition of cAMP production in HEK cells. It counts as cell-based. The note with it: HEK-293 cells with A2A receptor. Background: cAMP levels reflect the balance of adenylyl cyclase and phosphodiesterase activity.
A short description of data set [2]: in vitro. The settings on record: human, Caco-2, pH 7.4.
Where [3] appears, read: IC50 (nM) (3 nM NECA as agonist, 0.1% BSA), 3 nM NECA as agonist, 0.1% BSA.
[4] abbreviates: IC50 (nM) (5 μM Adenosine as agonist, 2.0% HSA), 5 μM Adenosine as agonist, 2.0% HSA.

A2A receptor, sequence (P29274 whole entry): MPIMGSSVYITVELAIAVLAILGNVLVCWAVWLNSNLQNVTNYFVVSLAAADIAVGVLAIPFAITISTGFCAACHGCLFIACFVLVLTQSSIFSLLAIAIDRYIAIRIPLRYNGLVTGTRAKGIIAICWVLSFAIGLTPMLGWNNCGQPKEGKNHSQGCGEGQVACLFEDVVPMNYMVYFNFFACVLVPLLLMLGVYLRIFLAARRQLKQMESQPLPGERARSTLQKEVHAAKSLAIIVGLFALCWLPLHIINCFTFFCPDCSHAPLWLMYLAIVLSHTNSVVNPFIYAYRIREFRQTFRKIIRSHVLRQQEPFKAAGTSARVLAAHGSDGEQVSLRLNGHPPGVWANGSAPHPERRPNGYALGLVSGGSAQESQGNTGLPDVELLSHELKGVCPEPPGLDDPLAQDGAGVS

As to `Nc1nc2c(sc(=O)n2CCN2CCN(c3cc(OCCO)ccc3F)CC2)c2nc(-c3ccco3)nn12` [Compound 88, 5-amino-3-(2-(4-(2-fluoro-5-(2-hydroxyethoxy)phenyl)piperazin-1-yl)ethyl)-8-(furan-2-yl)thiazolo[5,4-e][1,2,4]triazolo[1,5-c]pyrimidin-2(3H)-one], the figures for the IC50 in data set [1] (setting [3]) and in data set [1] (setting [4]) were 0.2 nM and 22 nM, respectively. The efflux ratio (as a rule, the permeability from basolateral to apical divided by that in the opposite direction, in the common usage) at 120 min, 2 μM in data set [2] is 19.

Turning to `Nc1nc2c(sc(=O)n2CCN2CCN(c3cc(OCC4CNCCO4)c(F)cc3F)CC2)c2nc(-c3ccco3)nn12` (stereo not drawn) [Compound 89, 5-amino-3-(2-(4-(2,4-difluoro-5-(morpholin-2-ylmethoxy)phenyl)piperazin-1-yl)ethyl)-8-(furan-2-yl)thiazolo[5,4-e][1,2,4]triazolo[1,5-c]pyrimidin-2(3H)-one], the IC50 (as a rule, the concentration at which inhibition is half-maximal) in data set [1] (setting [3]) worked out at 0.6 nM; in data set [1] (setting [4]), 9 nM. Further, the efflux ratio at 120 min, 2 μM in data set [2] was 456.

In the case of `Nc1nc2c(sc(=O)n2CCN2CCN(c3cc(OCC4COCCN4)c(F)cc3F)CC2)c2nc(-c3ccco3)nn12` (stereo not drawn) [Compound 90, 5-amino-3-(2-(4-(2,4-difluoro-5-(morpholin-3-ylmethoxy)phenyl)piperazin-1-yl)ethyl)-8-(furan-2-yl)thiazolo[5,4-e][1,2,4]triazolo[1,5-c]pyrimidin-2(3H)-one], the results for the IC50 in data set [1] (setting [3]) and in data set [1] (setting [4]) were 5.7 nM and 24 nM, respectively. Moreover, in data set [2], the efflux ratio at 120 min, 2 μM is 86.

Turning to `Nc1nc2c(sc(=O)n2CCN2CCN(c3cc(O[C@H]4CCNC4=O)c(F)cc3F)CC2)c2nc(-c3ccco3)nn12` [Compound 95, (S)-5-amino-3-(2-(4-(2,4-difluoro-5-((2-oxopyrrolidin-3-yl)oxy)phenyl)piperazin-1-yl)ethyl)-8-(furan-2-yl)thiazolo[5,4-e][1,2,4]triazolo[1,5-c]pyrimidin-2(3H)-one], the IC50 in data set [1] (setting [3]) was determined as 0.7 nM; in data set [1] (setting [4]), 37 nM. The efflux ratio at 120 min, 2 μM in data set [2] amounted to 137.

For `Nc1nc2c(sc(=O)n2CCN2CCN(c3cc(O[C@@H]4CCNC4=O)c(F)cc3F)CC2)c2nc(-c3ccco3)nn12` [Compound 96, (R)-5-amino-3-(2-(4-(2,4-difluoro-5-((2-oxopyrrolidin-3-yl)oxy)phenyl)piperazin-1-yl)ethyl)-8-(furan-2-yl)thiazolo[5,4-e][1,2,4]triazolo[1,5-c]pyrimidin-2(3H)-one], the IC50 was determined as 0.4 nM in data set [1] (setting [3]) and 19 nM in data set [1] (setting [4]). Besides, the efflux ratio at 120 min, 2 μM in data set [2] was 118.

As to `Nc1nc2c(sc(=O)n2CCN2CCN(c3cc(C(=O)NCC4COCCN4)c(F)cc3F)CC2)c2nc(-c3ccco3)nn12` (stereo not drawn) [Compound 98, 5-(4-(2-(5-amino-8-(furan-2-yl)-2-oxothiazolo[5,4-e][1,2,4]triazolo[1,5-c]pyrimidin-3(2H)-yl)ethyl)piperazin-1-yl)-2,4-difluoro-N-(morpholin-3-ylmethyl)benzamide], the values for the IC50 in data set [1] (setting [3]) and in data set [1] (setting [4]) were 0.1 nM and 7 nM, respectively. In addition, the efflux ratio at 120 min, 2 μM in data set [2] was 53.

On to `Nc1nc2c(sc(=O)n2CCN2CCN(c3ccc(OCC4COCCN4)cc3F)CC2)c2nc(-c3ccco3)nn12` (stereo not drawn) [Compound 99, 5-amino-3-(2-(4-(2-fluoro-4-(morpholin-3-ylmethoxy)phenyl)piperazin-1-yl)ethyl)-8-(furan-2-yl)thiazolo[5,4-e][1,2,4]triazolo[1,5-c]pyrimidin-2(3H)-one], for which the results for the IC50 in data set [1] (setting [3]) and in data set [1] (setting [4]) were 0.5 nM and 64 nM, respectively. Also, the efflux ratio at 120 min, 2 μM in data set [2] worked out at 13.

For the compound `Nc1nc2c(sc(=O)n2CCN2CCN(c3ccc(OCC4CNCCO4)cc3F)CC2)c2nc(-c3ccco3)nn12` (stereo not drawn) [Compound 100, 5-amino-3-(2-(4-(2-fluoro-4-(morpholin-2-ylmethoxy)phenyl)piperazin-1-yl)ethyl)-8-(furan-2-yl)thiazolo[5,4-e][1,2,4]triazolo[1,5-c]pyrimidin-2(3H)-one], the IC50 in data set [1] (setting [3]) is 0.1 nM; in data set [1] (setting [4]), 10 nM. Moreover, in data set [2], the efflux ratio at 120 min, 2 μM is 66.

The values are drawn from patent publication US10995101B2, “2-oxo-thiazole derivatives as A2A inhibitors and compounds for use in the treatment of cancers” (iTeos Therapeutics SA, priority 2017, dated 2021).
